Reference: article PMC4521012, “Distortion of the Major Histocompatibility Complex Class I Binding Groove to Accommodate an Insulin-derived 10-Mer Peptide” (The Journal of Biological Chemistry, 2015)

Experiments:
[1] = test system: G9C8 T-cell clone (insulin-reactive CD8+ T-cells); test: Staining of insulin-specific CD8 T-cells with H-2K^d·peptide tetramers; type: cell-based, NOD mouse; conditions: flow cytometry; for Tetramer+ (% of G9C8 clone stained by H-2K^d·peptide tetramer): splenocytes of G9Cα−/− NOD mice, 50 nM dasatinib preincubation, 0.5 μg tetramer, 15 min at 37 °C, gated on live CD8+ cells
[2] = test system: G9C8 T-cell clone (insulin-reactive CD8+ T-cells); test: T-cell functional assays (proliferation, MIP1β and IFNγ production); type: cell-based, NOD mouse; conditions: in all assays: [3H]thymidine proliferation, MIP1β and IFNγ ELISA; CD8+ T-cells with bone marrow-derived dendritic cells 10:1
Procedure: Splenic CD8^+ T-cells were purified using a Miltenyi MACS CD8^+ isolation kit (>90% purity) and cultured at 10:1 with bone marrow-derived dendritic cells with the LYLVCGERGF (G9GF), LYLVCGERG (G9G), or LYLVCGERV (G9V) peptide in RPMI medium supplemented with 5% FCS, 2 mM L-glutamine, 0.05 mM 2-mercaptoethanol, penicillin/streptomycin. Each sample was plated in duplicate. After 48 h of incubation, cells were pulsed with 0.5 μCi of [^3H]thymidine for 18 h, harvested, and counted to determine [^3H]thymidine incorporation.
Supernatants were removed from the proliferation assay cultures prior to the addition of [^3H]thymidine. MIP1β was measured by sandwich ELISA (R&D systems), whereas IFNγ was measured using a similar protocol (BD Biosciences) with the modification that the capture antibody was diluted in carbonate buffer and incubated at 4 °C overnight. Plates were blocked at 37 °C for 1 h, and the detection antibody was incubated for 1 h at room temperature.

[3] = biological target: H-2K^d (Mus musculus, UniProt P01902); test: pMHC stability assay (thermal stability by CD spectroscopy); type: physicochemical, murine; conditions: CD spectroscopy at 218 nm, 2.5 μM protein in PBS, 4-90 °C in 0.5 °C intervals, two-state trimer-to-monomer fit
Procedure: Thermal stability of H-2K^d complexes was assessed by circular dichroism (CD) spectroscopy, monitoring the change in ellipticities at 218 nm. Data were collected on an Aviv Model 215 spectropolarimeter (Aviv Biomedical Inc., Lakewood, NJ) using a 0.1-cm quartz cell. Proteins were dissolved in PBS at concentrations of 2.5 μM. Melting curves were recorded in 0.5 °C intervals from 4 °C up to a maximum temperature of 90 °C when protein aggregation was observed. Melting curves were analyzed assuming a two-state trimer-to-monomer transition from the native (N) to unfolded (U) conformation N3 ↔ 3U with an equilibrium constant K = [U]^3/[N3] = F/(3c^2(1 − F)^3), where F and c are the degree of folding and protein concentration, respectively. Data were fitted as described ([38]). Fitted parameters were the melting temperature (Tm), van't Hoff's enthalpy (ΔHvH), and the slope and intercept of the native baseline. Because all protein complexes aggregated upon unfolding, the ellipticity of the unfolded state was set as a constant of −4,500 degrees cm^2 dmol^−1 ([39], [40]).

[4] = test system: G9C8 TCR; test: Surface plasmon resonance analysis of G9C8 TCR binding to peptide-H-2K^d; design: species or system NOD mouse; conditions: SPR, 25 °C
Procedure: Binding analysis was performed using a BIAcore 3000^TM equipped with a CM5 sensor chip as described previously ([41]). Binding analysis was performed four times in independent experiments using pMHC monomers generated in house and from the National Institutes of Health tetramer facility. Approximately 200–500 RU of peptide-H-2K^d (in complex with G9GF, G9G, or G9V) was attached to the CM5 sensor chip at a slow flow rate of 10 μl/min to ensure uniform distribution on the chip surface. Combined with the small amount of peptide-H-2K^d bound to the chip surface, this reduced the likelihood of off-rate-limiting mass transfer effects. The G9C8 TCR was purified and concentrated to ∼140 μM on the same day of surface plasmon resonance analysis to reduce the likelihood of TCR aggregation affecting the results. For equilibrium analysis, eight serial dilutions were prepared in triplicate for each sample and injected over the relevant sensor chips at 25 °C. TCR was injected over the chip surface using kinetic injections at a flow rate of 45 μl/min using H-2K^d·AYAAAAAAV or HLA-A*0201·ALWGPDPAAA in different experiments as negative controls.

Sequence of H-2K^d (P01902 whole entry, looked up): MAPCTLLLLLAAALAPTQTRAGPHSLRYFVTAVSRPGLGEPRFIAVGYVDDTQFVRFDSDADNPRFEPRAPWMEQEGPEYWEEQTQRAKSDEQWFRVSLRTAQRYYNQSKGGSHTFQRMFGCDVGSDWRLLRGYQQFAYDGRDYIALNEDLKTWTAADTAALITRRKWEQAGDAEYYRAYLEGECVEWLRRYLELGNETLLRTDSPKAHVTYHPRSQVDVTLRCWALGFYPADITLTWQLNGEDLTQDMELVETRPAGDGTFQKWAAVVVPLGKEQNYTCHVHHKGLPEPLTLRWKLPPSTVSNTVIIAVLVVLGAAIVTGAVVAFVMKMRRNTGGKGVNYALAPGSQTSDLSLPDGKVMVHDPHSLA

Sequence	Tetramer+ (% of G9C8 clone stained by H-2K^d·peptide tetramer) [1]	Sensitivity of the G9C8 T-cell clone to G9G compared with G9GF [2]	Melting temperature of the H-2K^d complex, difference to G9G and G9GF (higher) [3]	G9C8 TCR affinity for the altered ligand compared with the native ligands (higher) [4]	Mean fluorescence intensity of tetramer staining, compared with H-2K^d·G9G tetramer (in words) ([1]; different concentrations of each tetramer)	Sensitivity of the G9C8 T-cell clone to G9V compared with G9G [2]
LYLVCGERG [G9G, native insulin B chain 9-mer peptide, tested as complex or tetramer with H-2K^d]	85.7%	about 5 times	–	–	–	–
LYLVCGERV [G9V]	87.9%	–	over 20 °C	> 10 times	substantially higher	at least 5 times
